# Patent publication US8791143B2, “Anthranilic diamide derivatives having cyclic side-chains” (priority 2010, dated 2014)
# Where two headings read alike, the source gives them in different places.
# How the values were obtained:
# [1] = test system: caterpillars of the armyworm (Spodoptera frugiperda); test: Spodoptera frugiperda test (SPODFR spray treatment); format: in vivo; details: Spodoptera frugiperda, 168 h, read-out: activity in % (caterpillars killed)
# [2] = test system: green peach aphid (Myzus persicae); test: Myzus test (MYZUPE spray treatment); format: in vivo; details: for pest or weed control at 100 g/ha / pest or weed control at 500 g/ha: read-out: activity in % (aphids killed)
# [3] = log P by HPLC on reversed-phase columns (EEC Directive 79/831 Annex V.A8); format: physicochemical
# [4] = test system: larvae of the mustard beetle (Phaedon cochleariae); test: Phaedon test (PHAECO spray treatment); details: Phaedon cochleariae, 168 h, read-out: activity in % (beetle larvae killed)
# [5] = application rate 100 g/ha, after 7 days
# [6] = Myzus persicae, 144 h, application rate 100 g/ha, after 6 days
# [7] = reversed-phase C18 HPLC column, pH 2.7, HPLC reversed-phase C18, acidic range pH 2.7 (HCOOH), only or first value of the cell, read-out: log P
Compound,pest or weed control at 100 g/ha [1] [%],pest or weed control at 100 g/ha [4] [%],"pest or weed control at 100 g/ha [1, 5] [%]","pest or weed control at 100 g/ha [2, 6] [%]","chromatographic logP [3, 7]","chromatographic logP ([3]; pH 2.7, log P)","pest or weed control at 100 g/ha ([2]; Myzus persicae, 144 h) [%]",also measured
Cc1cc(C#N)cc(C(=O)NC2COC2)c1NC(=O)c1cc(Cn2nnc(C(F)(F)F)n2)nn1-c1ncccc1Cl [Example 20],100,100,–,–,–,–,–,"activity in % (aphids killed) ([2]; application rate 100 g/ha, after 6 days): 90%; log P ([3]; pH 2.7): 2.51"
Cc1cc(C#N)cc(C(=O)NC2CSC2)c1NC(=O)c1cc(Cn2nnc(C(F)(F)F)n2)nn1-c1ccccc1Cl [Example 25],–,100,100,100,3.46,–,–,–
Cc1cc(C#N)cc(C(=O)NC2COC2)c1NC(=O)c1cc(Cn2nnc(C(F)(F)F)n2)nn1-c1c(Cl)cccc1Cl [Example 28],–,100,100,100,3.05,–,–,–
"Cc1cc(C#N)cc(C(=O)NC2CCS(=O)(=O)C2)c1NC(=O)c1cc(Cn2nnc(C(F)(F)F)n2)nn1-c1ncccc1Cl (centres unmarked) [Example 29, 1-(3-chloropyridin-2-yl)-N-{4-cyano-2-[(1,1-dioxidotetrahydrothiophen-3-yl)carbamoyl]-6-methylphenyl}-3-{[5-(trifluoromethyl)-2H-tetrazol-2-yl]methyl}-1H-pyrazole-5-carboxamide]",–,–,–,–,–,2.47,–,"pest or weed control at 500 g/ha [1]: 100%; pest or weed control at 500 g/ha ([2]; Myzus persicae, 144 h): 100%; inhibition at 100 g/ha ([2]; Myzus persicae, 144 h, 100 g/ha, 6 d, comparison with prior art): 100%; log P (second value after the slash) ([3]; pH 2.7): 2.17; pest or weed control at 500 g/ha [4]: 100%"
Cc1cc(C#N)cc(C(=O)NC2CCN(Cc3ccccc3)C2)c1NC(=O)c1cc(Cn2nnc(C(F)(F)C(F)(F)F)n2)nn1-c1ncccc1Cl (centres unmarked) [Example 32],–,–,–,90,2.14,–,–,"pest or weed control at 500 g/ha ([1]; application rate 500 g/ha, after 7 days): 100%; pest or weed control at 500 g/ha [4]: 100%"
Cc1cc(Cl)cc(C(=O)NC2CCS(=O)(=O)C2)c1NC(=O)c1cc(Cn2nnc(C(F)(F)F)n2)nn1-c1ncccc1Cl (centres unmarked) [Example 34],100,100,–,–,–,2.78,100,–
Cc1cc(Cl)cc(C(=O)NC2CS(=O)(=O)CC2O)c1NC(=O)c1cc(Cn2nnc(C(F)(F)F)n2)nn1-c1ncccc1Cl (centres unmarked) [Example 35],100,100,–,–,–,2.58,80,–
Cc1cc(C#N)cc(C(=O)NC2CCSC2=O)c1NC(=O)c1cc(Cn2nnc(C(F)(F)F)n2)nn1-c1ncccc1Cl (centres unmarked) [Example 39],–,–,–,–,–,2.89,–,"pest or weed control at 500 g/ha [1]: 100%; pest or weed control at 500 g/ha ([2]; Myzus persicae, 144 h): 100%; log P (second value after the slash) ([3]; pH 2.7): 2.57; pest or weed control at 500 g/ha [4]: 100%"
Cc1cc(Cl)cc(C(=O)NN2CCN(C)C2=O)c1NC(=O)c1cc(Cn2nnc(C(F)(F)F)n2)nn1-c1ncccc1Cl [Example 41],100,100,–,–,–,2.64,80,–
Cc1cc(Cl)cc(C(=O)NC2=NCCS2)c1NC(=O)c1cc(Cn2nnc(C(F)(F)F)n2)nn1-c1ncccc1Cl [Example 45],100,100,–,–,–,3.5,100,log P (second value after the slash) ([3]; pH 2.7): 3.14
Cc1cc(C#N)cc(C(=O)NC2=NCCS2)c1NC(=O)c1cc(Cn2nnc(C(F)(F)F)n2)nn1-c1ncccc1Cl [Example 46],100,100,–,–,–,3.11,100,log P (second value after the slash) ([3]; pH 2.7): 2.75
Cc1cc(C#N)cc(C(=O)NC2=NCCS2)c1NC(=O)c1cc(Cn2nnc(C(F)(F)C(F)(F)F)n2)nn1-c1ncccc1Cl [Example 48],100,100,–,–,–,3.49,80,log P (second value after the slash) ([3]; pH 2.7): 3.18
Cc1cc(C#N)cc(C(=O)NC2CCN(C)C2=O)c1NC(=O)c1cc(Cn2nnc(C(F)(F)F)n2)nn1-c1ncccc1Cl (centres unmarked) [Example 49],100,100,–,–,–,2.39,100,log P (second value after the slash) ([3]; pH 2.7): 2.19
Cc1cc(Cl)cc(C(=O)NC2CCN(C)C2=O)c1NC(=O)c1cc(Cn2nnc(C(F)(F)F)n2)nn1-c1ncccc1Cl (centres unmarked) [Example 50],100,100,–,–,–,2.66,100,log P (second value after the slash) ([3]; pH 2.7): 2.36
Cc1cc(C#N)cc(C(=O)NC2CCS(=O)(=O)C2)c1NC(=O)c1cc(Cn2nnc(C(F)(F)F)n2)nn1-c1c(Cl)cccc1Cl (centres unmarked) [Example 54],–,100,100,80,2.95,–,–,–
Cc1cc(Cl)cc(C(=O)NC(C)C2CCCO2)c1NC(=O)c1cc(Cn2nnc(C(F)(F)F)n2)nn1-c1ncccc1Cl (centres unmarked) [Example 62],100,100,–,–,–,3.45,100,–
Cc1cc(C#N)cc(C(=O)NCc2ccccc2)c1NC(=O)c1cc(Cn2nnc(C(F)(F)F)n2)nn1-c1ncccc1Cl [Example 70],100,100,–,–,–,3.38,100,–
Cc1cc(Cl)cc(C(=O)Nc2ccccc2)c1NC(=O)c1cc(Cn2nnc(C(F)(F)F)n2)nn1-c1ncccc1Cl [Example 72],100,100,–,–,–,3.81,80,–
Cc1cc(Cl)cc(C(=O)NC(C)c2ccccc2F)c1NC(=O)c1cc(Cn2nnc(C(F)(F)F)n2)nn1-c1ncccc1Cl (centres unmarked) [Example 87],100,100,–,–,–,3.98,80,–
Cc1cc(Cl)cc(C(=O)NCc2ccc([N+](=O)[O-])cc2)c1NC(=O)c1cc(Cn2nnc(C(F)(F)F)n2)nn1-c1ncccc1Cl [Example 97],–,100,100,90,3.65,–,–,–
Cc1cc(Cl)cc(C(=O)NCc2ccc(N)cc2)c1NC(=O)c1cc(Cn2nnc(C(F)(F)F)n2)nn1-c1ncccc1Cl [Example 140],100,100,–,–,–,2.55,100,–
Cc1cc(Cl)cc(C(=O)NCc2ccccc2OC(F)(F)F)c1NC(=O)c1cc(Cn2nnc(C(F)F)n2)nn1-c1ncccc1Cl [Example 150],–,100,100,100,3.81,–,–,–
Cc1cc(Cl)cc(C(=O)NCc2ccc(OC(F)(F)F)cc2)c1NC(=O)c1cc(Cn2nnc(C(F)F)n2)nn1-c1ncccc1Cl [Example 151],–,100,100,100,3.78,–,–,–
Cc1cc(Cl)cc(C(=O)NCc2ccc(OC(F)F)cc2)c1NC(=O)c1cc(Cn2nnc(C(F)(F)F)n2)nn1-c1ncccc1Cl [Example 152],–,100,100,100,3.87,–,–,–
Cc1cc(C#N)cc(C(=O)NCc2ccccc2OC(F)(F)F)c1NC(=O)c1cc(Cn2nnc(C(F)(F)F)n2)nn1-c1ncccc1Cl [Example 153],–,100,100,90,3.89,–,–,–
O=C(NCc1ccccc1OC(F)(F)F)c1cc(Br)cc(Cl)c1NC(=O)c1cc(Cn2nnc(C(F)(F)F)n2)nn1-c1ncccc1Cl [Example 193],–,100,100,90,4.3,–,–,–
O=C(NCc1ccc(Cl)cc1)c1cc(Cl)cc(F)c1NC(=O)c1cc(Cn2nnc(C(F)(F)F)n2)nn1-c1ncccc1Cl [Example 206],–,100,100,100,3.9,–,–,–
Cc1cc(Cl)cc(C(=O)NCc2ccc(F)cn2)c1NC(=O)c1cc(Cn2nnc(C(F)(F)F)n2)nn1-c1ncccc1Cl [Example 224],100,100,–,–,–,3.24,90,–
Cc1cc(Cl)cc(C(=O)NCc2ncc(F)cc2F)c1NC(=O)c1cc(Cn2nnc(C(F)(F)F)n2)nn1-c1ncccc1Cl [Example 231],100,100,–,–,–,3.5,90,–
Cc1cc(Cl)cc(C(=O)NC(C)c2ccc(Cl)cn2)c1NC(=O)c1cc(Cn2nnc(C(F)(F)F)n2)nn1-c1ncccc1Cl (centres unmarked) [Example 236],100,100,–,–,–,3.63,90,–
